Results published in patent US20030181401A1, “Insulin secretion promoter” (KYOWA HAKKO KOGYO CO., LTD., priority 2002, published 2003).
Where “and” joins values, the source holds several entries; their conditions need not be identical. Equal entries are not always repeated.

Key:
Type in all cases: in vivo
ICR mice [1] = experiment: Test Example 6: serum glucose after intravenous saccharide with simultaneous oral glucose loading
Description: (§1) Groups of male 9-week-old ICR mice (Japan SLC, Inc.) each consisting of 7 mice were fed CE-2 (Clea Japan, Inc.) for one week, so as to accustom the animals to the environment. Then, the mice were fasted for 18 hours.
(§2) An aqueous 10% solution of 2′-FL or NeuAc was intravenously administered to the mice to 500 mg (saccharide)/kg body weight, while an aqueous 40% glucose solution was orally administered simultaneously to 2 g (glucose)/kg body weight, to the mice. To the control group, physiological saline was administered intravenously, while glucose was orally administered simultaneously to 2 g/kg body weight. Zero minute and 30 minutes after glucose loading, blood was taken from a tail vein. […] Blood was centrifuged (4° C., 10000 rpm, 10 minutes), to obtain serum.
Furthermore, the glucose concentration in the serum recovered was also assayed. The glucose concentration was assayed, using Glucose CII-TEST WAKO (WAKO Pure Chemical Industries, Ltd.). 2 μl of the recovered serum was placed in a 96-well plate, followed by addition of 200 μl of the chromogenic solution attached to the kit, for incubation at 37° C. for 10 minutes. After incubation, the absorbance at 490 nm was assayed with a plate reader. Herein, a standard curve was prepared by using aqueous 500 mg/dl glucose solution as the standard solution to dilute the standard solution appropriately for the same reaction as for the serum, and plotting the relation between the concentration and the absorbance (490 nm). Based on the prepared standard curve and the absorbance from the reaction with the serum, the glucose concentration in the serum was determined.

ICR mice [2] = experiment: Test Example 8: blood glucose in glucose tolerance test after single oral 2′-FL dose
Description: Groups of male 8-week-old ICR mice (Japan SLC, Inc.) each consisting of 6 mice were fed CE-2 (Clea Japan, Inc.) for one week, so as to accustom the animals to the environment.
Then, the mice accustomed were fasted for 18 hours. An aqueous 2% solution of 2′-FL was orally administered to the mice to 100 mg (2′-FL)/kg body weight, while 0.9% saline was administered orally to the control group. Two hours after the 2′-FL dosing, an aqueous 40% glucose solution was orally administered to 2 g (glucose)/kg body weight to the mice, for glucose tolerance test. […] Blood glucose was assayed with a simple-type blood glucose assay apparatus Medisafe Reader GR-101 (Terumo, Co., Ltd.), while the serum was collected.

ICR mice [3] = experiment: Test Example 6: serum insulin after intravenous saccharide with simultaneous oral glucose loading
Description: as §1, §2
Insulin in the serum recovered was assayed by enzyme immunoassay using Lebis Insulin kit (for mice-T) (Shibayagi, Co., Ltd.) in the same manner as in the Test Example 2.

[4] = test system: STZ-induced diabetic rats (Wistar); experiment: Test Example 9: blood glucose in glucose tolerance test, Type I diabetes mellitus model
Description: Male 7-week-old Wistar rats (Japan SLC, Inc.) were fed CE-2 (Clea Japan, Inc.) for one week, so as to accustom the rats to the environment.
After 18-hour starvation of the accustomed rats, […] of 50 mM citrate buffer, pH 4.5containing 15 mg of streptozotocin (WAKO Pure Chemical Industries, Inc.; abbreviated as “STZ” hereinafter) was prepared and administered to 25 mg (STZ)/kg body weight from their tail vein. Five days after the STZ administration, the rats were fasted for 18 hours. Blood was taken from puncture in the tail vein to assay blood glucose with a simple-type blood glucose assay apparatus Medisafe Reader GR-101 (Terumo, Co., Ltd.), to select 5 rats (Nos. 1, 3, 4, 5, 8) at mild state of diabetes mellitus with a blood glucose level of 200 mg/dl or less.
An aqueous 2% solution of 2′-fucosyllactose was prepared and administered to the rat No. 1 from the tail vein to 50 mg/kg body weight on a 2′-FL dose basis. 0.9% physiological saline was administered to rats Nos. 3, 4, 5 and 8. Two hours after 2′-FL dosing, an aqueous 40% glucose solution was orally administered to 1 g/kg body weight to the rats for glucose tolerance test. Zero minute and 30, 60, 120, and 240 minutes after glucose loading, blood was taken from a tail vein, to assay blood glucose with Medisafe Reader GR-101 and collect the serum.
12 days after the STZ dosing, the rats were fasted for 18 hours. An aqueous 2% solution of 2′-FL at 50 mg (2′-FL)/kg body weight was administered to rats Nos. 3, 4, 5 and 8 on a 2′-FL dose basis through their tail veins. To the rat No. 1 was administered 0.9% physiological saline. Two hours after 2′-FL dosing, an aqueous 40% glucose solution was orally administered to 1 g (glucose)/kg body weight to the rats, for glucose tolerance test. Zero minute and 30, 60, 120, and 240 minutes after glucose loading, blood was taken from a tail vein, to assay blood glucose with Medisafe Reader GR-101 and collect the serum.

db/db mice = experiment: Test Example 4: serum insulin in glucose tolerance test after 7-day oral dosing of saccharides
Description: Groups of male 9-week-old db/db mice (Clea Japan, Inc.) each consisting of 6 mice were fed CE-2 (Clea Japan, Inc.) for one week, so as to accustom the animals to the environment.
After acclimation, individual aqueous 10% solutions of 3′-sialyllactose (abbreviated as “3′-SL” hereinafter), 6′-sialylactose (abbreviated as “6′-SL”) and 2′-FL were orally administered to the mice at 200 mg (saccharide)/kg body weight in the morning and at 300 mg (saccharide)/kg body weight in the evening. The both volume of saline was administered to the control group. The individual aqueous saccharide solutions and saline were both dosed daily to the mice for 7 days. During the dosing period, CE-2 was given together with drinking water ad libitum.
After 18-hour starvation from the final dosing on day 7, an aqueous 40% glucose solution was orally administered to 2 g (glucose)/kg body weight to the mice, to perform glucose tolerance test. Zero minute and 30 minutes after glucose loading, blood was taken from a tail vein. […] Blood was centrifuged (4° C., 10000 rpm, 10 minutes), to obtain serum.
Insulin in the serum recovered was assayed by enzyme immunoassay using Lebis Insulin kit (for rats-T) (Shibayagi, Co., Ltd.) in the same manner as in the Test Example 1.

[5] = ICR mice fasted 18 hours, 500 mg/kg intravenous with simultaneous glucose 2 g/kg oral, 30 minutes, mean ± SD
[6] = ICR mice fasted 18 hours, 500 mg/kg intravenous with simultaneous glucose 2 g/kg oral, 120 minutes, mean ± SD

## 2′-fucosyllactose [2′-FL]
ICR mice [1]; [5]
  Serum glucose concentration after glucose loading, 30 minutes: 331.4 ± 68.6 mg/dL
ICR mice [1]; [6]
  Serum glucose concentration after glucose loading, 120 minutes: 169.2 ± 29.5 mg/dL
ICR mice [1]; ICR mice fasted 18 hours, 500 mg/kg intravenous with simultaneous glucose 2 g/kg oral, zero minute, mean ± SD
  Serum glucose concentration after glucose loading, Zero minute: 102.4 ± 23.3 mg/dL
ICR mice [1]; ICR mice, intravenous dosing
  increase of the serum glucose concentration compared with the control group (in words): suppressed
ICR mice [2]; ICR mice fasted 18 hours, 100 mg/kg single oral dose two hours before glucose 2 g/kg oral, 0 minute, mean ± SD
  Blood glucose level after glucose loading, 0 minute: 109 ± 4.4 mg/dL
ICR mice [2]; ICR mice fasted 18 hours, 100 mg/kg single oral dose two hours before glucose 2 g/kg oral, 60 minutes, mean ± SD
  Blood glucose level after glucose loading, 60 minutes: 219 ± 29 mg/dL
ICR mice [2]; ICR mice fasted 18 hours, 100 mg/kg single oral dose two hours before glucose 2 g/kg oral, 120 minutes, mean ± SD
  Blood glucose level after glucose loading, 120 minutes: 147 ± 14.2 mg/dL
ICR mice [2]; ICR mice fasted 18 hours, 100 mg/kg single oral dose two hours before glucose 2 g/kg oral, −120 minutes, mean ± SD
  Blood glucose level after glucose loading, −120 minutes: 131 ± 23.6 mg/dL
ICR mice [2]; ICR mice, single oral dosing 120 minutes before glucose dosing
  elevation of blood glucose level (in words): suppressed
ICR mice [3]; [5]
  Serum insulin concentration after glucose loading, 30 minutes: 192.3 ± 57.4 pg/mL
ICR mice [3]; [6]
  Serum insulin concentration after glucose loading, 120 minutes: 2090.7 ± 533.1 pg/mL
ICR mice [3]; ICR mice, intravenous dosing
  serum insulin concentration after glucose loading compared with the control group (in words): increased
[4]; STZ-induced diabetic rats, glucose loading 2 hours after intravenous dosing
  increase of blood glucose level (in words): suppressed
[4]; individual STZ rats Nos. 1, 3, 4, 5, 8, 50 mg/kg intravenous two hours before glucose 1 g/kg oral, 0 minute, 50 mg/kg
  Blood glucose level after glucose loading, 0 minute: 135 mg/dL and 186 mg/dL and 97 mg/dL and 134 mg/dL and 138 mg/dL
[4]; individual STZ rats Nos. 1, 3, 4, 5, 8, 50 mg/kg intravenous two hours before glucose 1 g/kg oral, 30 minutes, 50 mg/kg
  Blood glucose level after glucose loading, 30 minutes: 167 mg/dL and 273 mg/dL and 237 mg/dL and 162 mg/dL and 152 mg/dL
[4]; individual STZ rats Nos. 1, 3, 4, 5, 8, 50 mg/kg intravenous two hours before glucose 1 g/kg oral, 60 minutes, 50 mg/kg
  Blood glucose level after glucose loading, 60 minutes: 172 mg/dL and 355 mg/dL and 253 mg/dL and 154 mg/dL and 158 mg/dL
[4]; individual STZ rats Nos. 1, 3, 4, 5, 8, 50 mg/kg intravenous two hours before glucose 1 g/kg oral, 120 minutes, 50 mg/kg
  Blood glucose level after glucose loading, 120 minutes: 181 mg/dL and 342 mg/dL and 224 mg/dL and 161 mg/dL and 136 mg/dL
[4]; individual STZ rats Nos. 1, 3, 4, 5, 8, 50 mg/kg intravenous two hours before glucose 1 g/kg oral, 240 minutes, 50 mg/kg
  Blood glucose level after glucose loading, 240 minutes: 146 mg/dl and 328 mg/dl and 139 mg/dl (2×) and 50 mg/dl
[4]; individual STZ rats Nos. 1, 3, 4, 5, 8, 50 mg/kg intravenous two hours before glucose 1 g/kg oral, −120 minutes, 50 mg/kg
  Blood glucose level after glucose loading, −120 minutes: 108 mg/dL and 197 mg/dL and 122 mg/dL and 121 mg/dL and 117 mg/dL
db/db mice; continuous daily oral dosing
  serum insulin concentration during glucose loading compared with the control group (in words): increased
db/db mice; oral 200 + 300 mg/kg daily, 7 days, glucose 2 g/kg oral, 30 minutes, mean ± SD
  Serum insulin concentration after glucose loading, 30 minutes: 8.3 ± 3.9 ng/mL
db/db mice; oral 200 + 300 mg/kg daily, 7 days, glucose 2 g/kg oral, 120 minutes, mean ± SD
  Serum insulin concentration after glucose loading, 120 minutes: 26.1 ± 12.9 ng/mL
db/db mice; oral 200 + 300 mg/kg daily, 7 days, glucose 2 g/kg oral, zero minute, mean ± SD
  Serum insulin concentration after glucose loading, Zero minute: 6.7 ± 3.3 ng/mL
